Parameters in all cases: made in house; host or cells: Saccharomyces cerevisiae FGY217
In assay [1] the target is T1, human SLC35B1 (wild type) (Homo sapiens, UniProt P78383).
T1 sequence (P78383 1-322): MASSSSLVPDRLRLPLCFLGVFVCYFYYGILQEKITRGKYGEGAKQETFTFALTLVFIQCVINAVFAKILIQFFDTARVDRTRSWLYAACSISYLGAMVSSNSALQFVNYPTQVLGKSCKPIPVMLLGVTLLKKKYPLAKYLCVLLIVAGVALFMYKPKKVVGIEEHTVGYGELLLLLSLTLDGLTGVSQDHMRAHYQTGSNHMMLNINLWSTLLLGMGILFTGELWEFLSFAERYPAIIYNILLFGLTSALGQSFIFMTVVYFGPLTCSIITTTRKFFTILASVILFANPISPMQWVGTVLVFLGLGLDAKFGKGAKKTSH
Nature of the assay: IC50 for competitive inhibition of [3H]ADP uptake in proteoliposomes. As to conditions: for IC50: wild-type SLC35B1 proteoliposomes. The assay is classed as biochemical.

For assay [2], the target named is T1, human SLC35B1 (wild type). Format: binding. As to conditions: for ΔTm (average melting temperature increase) / ΔTm, individual titrations (source data): 1 mM nucleotide; for ΔTm (average melting temperature increase): purified wild-type SLC35B1–GFP; for ΔTm, individual titrations (source data): wild-type SLC35B1–GFP; for GFP fluorescence after heating (source data Fig 1B): 1 mM substrate.

In assay [3] the target is T1, human SLC35B1 (wild type). Nature of the assay: STD NMR of nucleotide interaction with SLC35B1 proteoliposomes. The assay is classed as binding.
Assay [4] addresses T1, human SLC35B1 (wild type). Nature of the assay: Competitive uptake assay: [3H]ADP uptake with 1 mM cold nucleotide. The assay is classed as biochemical. To be noted: for Normalized SLC35B1-mediated uptake of [3H]ADP in competition with cold nucleotide: 1 mM external cold nucleotide, proteoliposomes preloaded with 1 mM ATP; for [3H]ADP uptake in the presence of cold competitor nucleotide (individual replicates; no-competitor control about 100): competitor 1mM, sheet ED 6F, SLC35B1 proteoliposomes.

For assay [5], the target named is T1, human SLC35B1 (wild type). Nature of the assay: Uptake of [3H]ATP or [3H]ADP into nucleotide-preloaded SLC35B1 proteoliposomes. As to conditions: Unloaded (preloaded with buffer). Format: biochemical.

Several values for one entry are separate records, joined by “and”; a condition that tells them apart may be missing. Equal entries are not always repeated. Where two headings read alike, the source gives them in different places.

The IC50 is the concentration that inhibits the measured activity by half. Read a high IC50 as lower potency.

For `Nc1nc2c(ncn2[C@@H]2O[C@H](COP(=O)(O)OP(=O)(O)OP(=O)(O)O)[C@@H](O)[C@H]2O)c(=O)[nH]1` [GTP], the “Normalized [3H]-ADP uptake activity (IC50 curve)” value is 88.1 and 101.287 and 103.95 in assay [1] (external cold nucleotide 1 uM); 84.475 and 90.925 and 119.487 in assay [1] (external cold nucleotide 10 uM); 92.075 and 105.213 and 83.1625 in assay [1] (external cold nucleotide 100 uM); 48.75 and 67.325 and 73.7625 in assay [1] (external cold nucleotide 1000 uM); 2.4125 and 1.7125 and 1.675 in assay [1] (external cold nucleotide 100000 uM). Besides, in assay [1], the IC50 worked out at 3500 µM. Besides, in assay [2], the “ΔTm (average melting temperature increase)” value is on record as “poor thermostabilization”. The “ΔTm, individual titrations (source data)” value in assay [2] is 1.35 and 2.4 and 1.45. For the same molecule, in assay [3], the “1H integral (off-resonance spectrum)” value is 4.09E+10. The STD integral in assay [3] worked out at 2.66E+09. Also, the “Total STD amplification factor (STD NMR signal)” value in assay [3] (500 μM substrate) is recorded as “low STD NMR signals”. The “Normalized SLC35B1-mediated uptake of [3H]ADP in competition with cold nucleotide” value (“Normalized SLC35B1-mediated uptake” below) in assay [4] is “only weak competition”. Besides, the “[3H]ADP uptake in the presence of cold competitor nucleotide (individual replicates; no-competitor control about 100)” value in assay [4] is 82.2279 and 86.0047 and 83.9395 and 58.276 and 54.036 and 48.82.

Take `O=c1ccn([C@@H]2O[C@H](COP(=O)(O)OP(=O)(O)OP(=O)(O)O)[C@@H](O)[C@H]2O)c(=O)[nH]1` [UTP, uridine triphosphate]: the IC50 in assay [1] was 29 µM and 29.1 µM.

Turning to `Nc1ccn([C@@H]2O[C@H](COP(=O)(O)OP(=O)(O)O)[C@@H](O)[C@H]2O)c(=O)n1` [CDP], in assay [4], the “Normalized SLC35B1-mediated uptake” value was “more effective at competition”; the “[3H]ADP uptake in the presence of cold competitor nucleotide (individual replicates; no-competitor control about 100)” value is 1.97 and 2.619 and 2.963 and 13.22 and 12.328 and 14.044.

`Nc1ncnc2c1ncn2[C@@H]1O[C@H](COP(=O)(O)OP(=O)(O)OP(=O)(O)O)[C@@H](O)[C@H]1O` [[^3H]ATP]: the “One-minute uptake of [3H]ATP by SLC35B1 proteoliposomes” value in assay [5] was 0.4851.

In the case of `O=c1ccn([C@@H]2O[C@H](COP(=O)(O)OP(=O)(O)O)[C@@H](O)[C@H]2O)c(=O)[nH]1` [UDP, uridine diphosphate], in assay [4], the “Normalized SLC35B1-mediated uptake” value is given as “more effective at competition”; the “[3H]ADP uptake in the presence of cold competitor nucleotide (individual replicates; no-competitor control about 100)” value is 0.8481 and 1.885 and 1.122 and 21.524 and 20.444 and 14.96.

On to `Nc1ncnc2c1ncn2[C@@H]1O[C@H](COP(=O)(O)O)[C@@H](O)[C@H]1O` [AMP, adenosine monophosphate], for which, in assay [2], the “ΔTm (average melting temperature increase)” value came to 1.1 °C. Moreover, the “ΔTm, individual titrations (source data)” value in assay [2] is 1.3 and 1.29 and 0.78. Moreover, the “GFP fluorescence after heating (source data Fig 1B)” value is 106.601 and 104.432 and 95.3539 and 89.0072 and 98.5673 and 95.7555 in assay [2] (temperature 4); 120.178 and 88.2039 and 92.06 and 93.2651 in assay [2] (temperature 10); 106.039 and 98.5673 and 92.7027 and 90.0516 and 90.7747 and 95.3539 in assay [2] (temperature 20); 90.132 and 77.6476 and 78.8286 and 77.1736 and 79.5837 and 81.6163 in assay [2] (temperature 30); 21.7011 and 19.6043 and 15.5232 and 15.3143 and 15.5553 and 16.68 in assay [2] (temperature 40); 5.771 and 5.947 and 3.195 and 3.312 and 3.387 and 3.526 in assay [2] (temperature 50).

(Values after publication PMC12267056 (Nature, 2025).)
